# Assay results from US9624209B2, “Substituted phenylureas and phenylamides as vanilloid receptor ligands” (Gruenenthal GmbH, priority 2009, dated 2017).
# Target: T1, vanilloid receptor 1 (VR1/TRPV1 receptor) (Homo sapiens, UniProt Q8NER1)
# T1 construct: expressed in transfected cells; host or cells: CHO K1 cells (ECACC), stably transfected
# Experiment: VR1/TRPV1 receptor affinity, capsaicin stimulus (human)
# Type: cell-based, human being
# Set-up: key to (f) Ki (human being) [nM] Cap: result in words: AG=agonist; pAG=partial agonist; NE=no effect
# Details: for Ki: Tables 8-12, read-out: (f) Ki (human being) [nM] Cap; for inhibition at 5 µM: Tables 8-12, read-out: (f) Ki (human being) [nM] Cap: inhibition (as a percentage)
# T1 sequence (Q8NER1 whole entry): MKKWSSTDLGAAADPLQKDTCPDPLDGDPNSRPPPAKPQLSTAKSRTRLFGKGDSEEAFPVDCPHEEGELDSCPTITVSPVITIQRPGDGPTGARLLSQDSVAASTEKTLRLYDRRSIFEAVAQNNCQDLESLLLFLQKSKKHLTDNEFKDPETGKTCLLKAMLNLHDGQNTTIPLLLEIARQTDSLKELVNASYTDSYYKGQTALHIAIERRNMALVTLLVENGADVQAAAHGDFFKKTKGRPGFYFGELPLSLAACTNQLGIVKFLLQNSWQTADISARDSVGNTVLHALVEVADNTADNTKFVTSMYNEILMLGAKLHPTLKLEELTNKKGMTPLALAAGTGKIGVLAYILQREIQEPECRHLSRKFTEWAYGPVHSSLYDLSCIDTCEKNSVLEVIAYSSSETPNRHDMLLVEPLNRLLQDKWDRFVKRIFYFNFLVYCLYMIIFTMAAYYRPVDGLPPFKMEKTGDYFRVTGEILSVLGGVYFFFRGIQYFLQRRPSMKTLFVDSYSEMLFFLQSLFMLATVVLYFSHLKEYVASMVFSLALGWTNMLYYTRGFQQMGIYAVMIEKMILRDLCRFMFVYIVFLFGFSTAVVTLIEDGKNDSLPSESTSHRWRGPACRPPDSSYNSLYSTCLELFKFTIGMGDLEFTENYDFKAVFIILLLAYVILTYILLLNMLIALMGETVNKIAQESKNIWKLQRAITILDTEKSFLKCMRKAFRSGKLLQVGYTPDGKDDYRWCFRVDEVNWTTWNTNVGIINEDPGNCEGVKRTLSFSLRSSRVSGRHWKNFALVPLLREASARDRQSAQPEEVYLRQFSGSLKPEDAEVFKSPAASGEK
Compound,Ki [nM],further results
N-[[4-[[[5-tert-Butyl-2-(3-chlorophenyl)-2H-pyrazol-3-yl]-methyl-carbamoyl]amino]-2-fluoro-phenyl]-methyl]-acetamide [Example B34],15,
"CC(C(=O)NCc1cc(C(F)(F)F)nn1-c1cccc(Cl)c1)c1ccc(S(C)(=O)=O)c(Cl)c1 (stereo not drawn) [Example D5, 2-(3-Chloro-4-methylsulfonyl-phenyl)-N-[[2-(3-chlorophenyl)-5-(trifluoromethyl)-2H-pyrazol-3-yl]-methyl]-propionamide]",7,
"CC(C(=O)N(C)c1cc(C(F)(F)F)nn1-c1cccc(Cl)c1)c1ccc(C(=O)NC2CCOCC2)c(F)c1 (stereo not drawn) [Example E23, 4-[1-[[2-(3-Chlorophenyl)-5-(trifluoromethyl)-2H-pyrazol-3-yl]-methyl-carbamoyl]-ethyl]-2-fluoro-N-tetrahydro-pyran-4-yl-benzamide]",,inhibition at 5 µM (@ 5 μM): 24.8%
"CCS(=O)(=O)NCc1ccc(NC(=O)NCc2cc(C(F)(F)F)nn2-c2cccc(C)c2)cc1 [Example B91, 1-[4-[[(Ethylsulfonyl)amino]-methyl]-phenyl]-3-[[2-(m-tolyl)-5-(trifluoromethyl)-2H-pyrazol-3-yl]-methyl]-urea]",57,
"CC(C)c1cccc(-n2nc(C(F)(F)F)cc2CNC(=O)Nc2ccc(CNS(N)(=O)=O)c(F)c2)c1 [Example B80, 1-[3-Fluoro-4-[(sulfamoylamino)-methyl]-phenyl]-3-[[2-(3-isopropyl-phenyl)-5-(trifluoromethyl)-2H-pyrazol-3-yl]-methyl]-urea]",2,
O=C(NCc1cc(C(F)(F)F)nn1-c1cccc(Cl)c1)Nc1ccc(C(=O)NCCO)c(F)c1 [Example E18],37,
"CNCc1ccc(NC(=O)NCc2cc(C(F)(F)F)nn2-c2cccc(Cl)c2)cc1 [Example B14, 1-[[2-(3-Chlorophenyl)-5-(trifluoromethyl)-2H-pyrazol-3-yl]-methyl]-3-[4-(methylamino-methyl)-phenyl]-urea]",64,
"CC(C(=O)NCc1cc(C(C)(C)C)nn1-c1cccc(C(F)(F)F)c1)c1ccc(CNS(C)(=O)=O)c(F)c1 (stereo not drawn) [Example B43, N-[[5-tert-Butyl-2-[3-(trifluoromethyl)phenyl]-2H-pyrazol-3-yl]-methyl]-2-[3-fluoro-4-(methanesulfonamido-methyl)-phenyl]-propionamide]",1,
"NCc1ccc(NC(=O)NCc2cc(C(F)(F)F)nn2-c2cccc(Cl)c2)cc1F [Example B39, 1-[4-(Aminomethyl)-3-fluoro-phenyl]-3-[[2-(3-chlorophenyl)-5-(trifluoromethyl)-2H-pyrazol-3-yl]-methyl]-urea]",,inhibition at 5 µM (@ 5 μM): 37%
"CC(C(=O)NCc1cc(C(F)(F)F)nn1-c1cccc(Cl)c1)c1ccc(CS(C)(=O)=O)c(F)c1 (stereo not drawn) [Example D6, N-[[2-(3-Chlorophenyl)-5-(trifluoromethyl)-2H-pyrazol-3-yl]-methyl]-2-[3-fluoro-4-(methylsulfonyl-methyl)-phenyl]-propionamide]",38,
"COc1ccc(NC(=O)NCc2cc(C(F)(F)F)nn2-c2cccc(Cl)c2)cc1O [Example A16, 1-[[2-(3-Chlorophenyl)-5-(trifluoromethyl)-2H-pyrazol-3-yl]-methyl]-3-(3-hydroxy-4-methoxy-phenyl)-urea]",,(f) Ki (human being) [nM] Cap: result in words (Tables 8-12): AG
"Cc1cccc(-n2nc(C(C)(C)C)cc2CNC(=O)Nc2ccc(CNS(C)(=O)=O)cc2)c1 [Example B90, 1-[[5-tert-Butyl-2-(m-tolyl)-2H-pyrazol-3-yl]-methyl]-3-[4-(methanesulfonamido-methyl)-phenyl]-urea]",12,
"CC(C(=O)NCc1cc(C(F)(F)F)nn1-c1cccc(Cl)c1)c1ccc(CN(C)S(C)(=O)=O)c(F)c1 (stereo not drawn) [Example B29, N-[[2-(3-Chlorophenyl)-5-(trifluoromethyl)-2H-pyrazol-3-yl]-methyl]-2-[3-fluoro-4-[(methyl-methylsulfonyl-amino)-methyl]-phenyl]-propionamide]",59,
4-[[[5-tert-Butyl-2-(3-chlorophenyl)-2H-pyrazol-3-yl]-methyl-carbamoyl]-methyl]-N-[4-(trifluoromethyl)-phenyl]-benzamide [Example E50],12,
"CC(C(=O)NCc1cc(C(F)(F)F)nn1-c1cccc(F)c1)c1ccc(S(C)(=O)=O)c(F)c1 (stereo not drawn) [Example D3, 2-(3-Fluoro-4-methylsulfonyl-phenyl)-N-[[2-(3-fluorophenyl)-5-(trifluoromethyl)-2H-pyrazol-3-yl]-methyl]-propionamide]",,inhibition at 5 µM (@ 5 μM): 55%
"CC(C(=O)NCc1cc(C(C)(C)C)nn1-c1ccc(F)c(Cl)c1)c1ccc(CNS(C)(=O)=O)c(F)c1 (stereo not drawn) [Example B3, N-[[5-tert-Butyl-2-(3-chloro-4-fluoro-phenyl)-2H-pyrazol-3-yl]-methyl]-2-[3-fluoro-4-(methanesulfonamido-methyl)-phenyl]-propionamide]",3,
"CC(C)(C)c1cc(CNC(=O)Nc2ccc(N3CC(O)C3)c(F)c2)n(-c2cccc(Cl)c2)n1 [Example C7, 1-[[5-tert-Butyl-2-(3-chlorophenyl)-2H-pyrazol-3-yl]-methyl]-3-[3-fluoro-4-(3-hydroxy-azetidin-1-yl)-phenyl]-urea]",15,

Compound,Ki [nM],further results
4-[1-[[5-tert-Butyl-2-(3-chlorophenyl)-2H-pyrazol-3-yl]-methyl-carbamoyl]-ethyl]-2-fluoro-N-phenyl-benzamide [Example E29],5,
"CC(C(=O)NCc1cc(C(F)(F)F)nn1-c1cccc(Cl)c1)c1ccc(CNS(N)(=O)=O)cc1 (stereo not drawn) [Example B102, N-[[2-(3-Chlorophenyl)-5-(trifluoromethyl)-2H-pyrazol-3-yl]-methyl]-2-[4-[(sulfamoylamino)-methyl]-phenyl]-propionamide]",1,
"CC(C(=O)NCc1cc(C(F)(F)F)nn1-c1cccc(C(F)(F)F)c1)c1ccc(CNS(C)(=O)=O)c(F)c1 (stereo not drawn) [Example B8, 2-[3-Fluoro-4-(methanesulfonamido-methyl)-phenyl]-N-[[5-(trifluoromethyl)-2-[3-(trifluoromethyl)phenyl]-2H-pyrazol-3-yl]-methyl]-propionamide]",1,
4-[1-[[5-tert-Butyl-2-(3-chlorophenyl)-2H-pyrazol-3-yl]-methyl-carbamoyl]-ethyl]-N-[4-(trifluoromethyl)-phenyl]-benzamide [Example E47],3,
"NS(=O)(=O)NCc1ccc(NC(=O)NCc2cc(C(F)(F)F)nn2-c2cccc(Cl)c2)cc1 [Example B35, 1-[[2-(3-Chlorophenyl)-5-(trifluoromethyl)-2H-pyrazol-3-yl]-methyl]-3-[4-[(sulfamoylamino)-methyl]-phenyl]-urea]",9,
"CC(C(=O)NCc1cc(C(C)(C)C)nn1-c1ccc(F)c(Cl)c1)c1ccc(N2CCCS2(=O)=O)c(F)c1 (stereo not drawn) [Example C2, N-[[5-tert-Butyl-2-(3-chloro-4-fluoro-phenyl)-2H-pyrazol-3-yl]-methyl]-2-[4-(1,1-dioxo-[1,2]thiazolidin-2-yl)-3-fluoro-phenyl]-propionamid]",50,
"CC(C(=O)NCc1cc(C(C)(C)C)nn1-c1ccc(Cl)cc1)c1ccc(CNS(C)(=O)=O)c(F)c1 (stereo not drawn) [Example B20, N-[[5-tert-Butyl-2-(4-chlorophenyl)-2H-pyrazol-3-yl]-methyl]-2-[3-fluoro-4-(methanesulfonamido-methyl)-phenyl]-propionamide]",52,
"Cc1cccc(-n2nc(C(F)(F)F)cc2CNC(=O)C(C)c2ccc(CNS(C)(=O)=O)c(F)c2)c1 (stereo not drawn) [Example B68, 2-[3-Fluoro-4-(methanesulfonamido-methyl)-phenyl]-N-[[2-(m-tolyl)-5-(trifluoromethyl)-2H-pyrazol-3-yl]-methyl]-propionamide]",4,
4-[1-[[2-(3-Chlorophenyl)-5-(trifluoromethyl)-2H-pyrazol-3-yl]-methyl-carbamoyl]-ethyl]-2-fluoro-N-thiazol-2-yl-benzamide [Example E52],59,
"CC(C)(C)c1cc(CNC(=O)Nc2ccc(CNS(N)(=O)=O)cc2)n(-c2cccc(F)c2)n1 [Example B56, 1-[[5-tert-Butyl-2-(3-fluorophenyl)-2H-pyrazol-3-yl]-methyl]-3-[4-[(sulfamoylamino)-methyl]-phenyl]-urea]",56,
"CCC(=O)c1ccc(C(C)C(=O)NCc2cc(C(F)(F)F)nn2-c2cccc(OC)c2)cc1F (stereo not drawn) [Example E2, 2-(3-Fluoro-4-propanoyl-phenyl)-N-[[2-(3-methoxyphenyl)-5-(trifluoromethyl)-2H-pyrazol-3-yl]-methyl]-propionamide]",35,
"NS(=O)(=O)NCc1ccc(NC(=O)NCc2cc(C(F)(F)F)nn2-c2cccc(Cl)c2)cc1F [Example B41, 1-[[2-(3-Chlorophenyl)-5-(trifluoromethyl)-2H-pyrazol-3-yl]methyl]-3-[3-fluoro-4-[(sulfamoylamino)-methyl]-phenyl]-urea]",74,
"CC(C)(C)c1cc(CNC(=O)Nc2ccc(CNS(C)(=O)=O)c(F)c2)n(-c2ccc(F)cc2)n1 [Example B53, 1-[[5-tert-Butyl-2-(4-fluorophenyl)-2H-pyrazol-3-yl]-methyl]-3-[3-fluoro-4-(methanesulfonamido-methyl)-phenyl]-urea]",33,
1-[[5-tert-Butyl-2-(3-fluorophenyl)-2H-pyrazol-3-yl]-methyl]-3-[3-fluoro-4-(3-hydroxy-azetidin-1-yl)-phenyl]-urea [Example C8],,"(f) Ki (human being) [nM] Cap: inhibition (as a percentage) (@ 5 μM, Tables 8-12): 53% @ 5 μM"
"COc1cc(NC(=O)N(C)c2cc(C(C)(C)C)nn2-c2cccc(Cl)c2)ccc1C(=O)O [Example E56, 4-[[[5-tert-Butyl-2-(3-chlorophenyl)-2H-pyrazol-3-yl]-methyl-carbamoyl]amino]-2-methoxy-benzoic acid]",,inhibition at 5 µM (@ 5 μM): 52%
"NS(=O)(=O)NCc1ccc(NC(=O)NCc2cc(C(F)(F)F)nn2-c2cccc(F)c2)cc1F [Example B60, 1-[[2-(3-Fluorophenyl)-5-(trifluoromethyl)-2H-pyrazol-3-yl]-methyl]-3-[3-fluoro-4-[(sulfamoylamino)-methyl]-phenyl]-urea]",25,
